Measurements from ChEMBL document CHEMBL4017471, “Discovery of novel aminobenzisoxazole derivatives as orally available factor IXa inhibitors” (Bioorg Med Chem Lett, 2017).
Converted amounts (≈) assume the structure as drawn.

Legend:
[1] = Metabolic stability in human liver microsomes at 1 uM measured after 20 mins in presence of NADP+ by LC-MS/MS method; format: ADME, microsome; details: read-out: Stability
Cytochrome P450 1A2 [2] = biological target: T1, Cytochrome P450 1A2 (Homo sapiens, UniProt P05177); assay: Induction of CYP1A2 in hepatocytes (unknown origin) assessed as 7-ethoxyresorufin O-dealkylation at 0.3 to 10 uM treated for 3 days; format: ADME, cell-based; details: 72 h
T1 sequence (P05177 whole entry): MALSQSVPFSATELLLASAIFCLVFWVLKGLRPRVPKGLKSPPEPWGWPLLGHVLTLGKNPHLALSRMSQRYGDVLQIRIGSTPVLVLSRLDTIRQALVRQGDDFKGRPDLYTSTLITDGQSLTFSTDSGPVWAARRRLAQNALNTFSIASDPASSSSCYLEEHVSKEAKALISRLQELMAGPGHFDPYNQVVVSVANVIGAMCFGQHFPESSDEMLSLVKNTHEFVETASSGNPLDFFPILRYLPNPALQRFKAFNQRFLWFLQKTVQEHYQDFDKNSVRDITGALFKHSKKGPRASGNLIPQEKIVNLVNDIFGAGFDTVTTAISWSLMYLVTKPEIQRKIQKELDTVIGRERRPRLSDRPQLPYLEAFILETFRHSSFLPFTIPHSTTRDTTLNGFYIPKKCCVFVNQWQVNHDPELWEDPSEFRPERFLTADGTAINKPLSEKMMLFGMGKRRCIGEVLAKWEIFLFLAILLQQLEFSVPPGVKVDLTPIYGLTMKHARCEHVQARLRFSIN

[3] = Volume of distribution at steady state in rat at 1 mg/kg, iv; format: ADME, organism-based; details: in vivo, read-out: Vdss
[4] = AUCt in dog at 0.3 mg/kg, iv; format: ADME, organism-based, Canis lupus familiaris; details: in vivo
Cytochrome P450 2D6 = Cytochrome P450 2D6 (Homo sapiens, UniProt P10635); assay: Inhibition of CYP2D6 in liver microsomes (unknown origin) assessed as formation of 1-hydroxybufuralol from bufuralol in presence of NADPH by LC-MS/MS analysis; format: ADME
Cytochrome P450 3A4 [5] = biological target: T2, Cytochrome P450 3A4 (Homo sapiens, UniProt P08684); assay: Induction of CYP3A4 in hepatocytes (unknown origin) assessed as midazolam 1-hydroxylation at 0.3 to 10 uM treated for 3 days; format: ADME, cell-based; details: 72 h
Plasma [6] = assay: Anticoagulant activity in rat plasma assessed as concentration required to double activated partial thromboplastin time; format: functional
[7] = Unbound plasma concentration in dog at 10 uM measured after 4 hrs by equilibrium dialysis method; format: ADME, cell-free, Canis lupus familiaris
[8] = Metabolic stability in dog liver microsomes at 1 uM measured after 20 mins in presence of NADP+ by LC-MS/MS method; format: ADME, Canis lupus familiaris, microsome; details: read-out: Stability
[9] = AUCt in rat at 1 mg/kg, iv; format: ADME, organism-based; details: in vivo
[10] = Volume of distribution at steady state in dog at 0.3 mg/kg, iv; format: ADME, organism-based, Canis lupus familiaris; details: in vivo, read-out: Vdss
[11] = Unbound plasma concentration in human at 10 uM measured after 4 hrs by equilibrium dialysis method; format: ADME, cell-free
[12] = Metabolic stability in rat liver microsomes at 1 uM measured after 20 mins in presence of NADP+ by LC-MS/MS method; format: ADME, microsome; details: read-out: Stability
[13] = Oral bioavailability in rat at 10 mg/kg; format: ADME, organism-based; details: in vivo
[14] = Tmax in rat at 10 mg/kg, po; format: ADME, organism-based; details: in vivo
[15] = Unbound plasma concentration in rat at 10 uM measured after 4 hrs by equilibrium dialysis method; format: ADME, cell-free
Cytochrome P450 2C19 = Cytochrome P450 2C19 (Homo sapiens, UniProt P33261); assay: Inhibition of CYP2C19 in liver microsomes (unknown origin) assessed as formation of 4-hydroxymephenytoin from S-mephenytoin in presence of NADPH by LC-MS/MS analysis; format: ADME
[16] = Half life in dog at 0.3 mg/kg, iv; format: ADME, organism-based, Canis lupus familiaris; details: in vivo
[17] = Half life in rat at 1 mg/kg, iv; format: ADME, organism-based; details: in vivo
Plasma [18] = assay: Effect on prothrombin time in rat plasma assessed as concentration required to double prothrombin time; format: functional
[19] = Solubility of the compound in phosphate buffer at pH 7.4 measured after 1.5 hrs by UV absorbance method; format: physicochemical
Coagulation factor X = Coagulation factor X (Homo sapiens, UniProt P00742)
Description: Inhibition of human coagulation factor 10a

[20] = Total clearance in dog at 0.3 mg/kg, iv; format: ADME, organism-based, Canis lupus familiaris; details: in vivo
[21] = Apparent permeability in MDCK2-MDR1 cells at 5 uM after 1 hr by LC-MS/MS method; format: ADME, cell-based, Canis lupus familiaris; details: dog, MDCK-MDR1
[22] = Apparent permeability of the compound at 5 uM after 5 hrs by PAMPA; format: physicochemical
Plasma [23] = assay: Anticoagulant activity in human plasma assessed as concentration required to double activated partial thromboplastin time; format: functional
Plasma [24] = assay: Effect on prothrombin time in human plasma assessed as concentration required to double prothrombin time; format: functional
[25] = Apparent permeability in MDCK cells at 5 uM after 1 hr by LC-MS/MS method; format: ADME, cell-based, Canis lupus familiaris; details: dog
[26] = Total clearance in rat at 1 mg/kg, iv; format: ADME, organism-based; details: in vivo
[27] = Cmax in rat at 10 mg/kg, po; format: ADME, organism-based; set-up: dose 10 mg/kg, route oral; details: in vivo
Coagulation factor IX [28] = biological target: Coagulation factor IX (Rattus norvegicus, UniProt P16296); assay: Inhibition of rat coagulation factor 9a
Coagulation factor IX [29] = biological target: Coagulation factor IX (Homo sapiens, UniProt P00740)
Cytochrome P450 2C9 = Cytochrome P450 2C9 (Homo sapiens, UniProt P11712); assay: Inhibition of CYP2C9 in liver microsomes (unknown origin) assessed as formation of 4-hydroxydiclofenac from diclofenac in presence of NADPH by LC-MS/MS analysis; format: ADME
[30] = AUCt in rat at 10 mg/kg, po; format: ADME, organism-based; details: in vivo
Cytochrome P450 3A4 [31] = biological target: T2, Cytochrome P450 3A4; assay: Inhibition of CYP3A4 in liver microsomes (unknown origin) assessed as formation of 1-hydroxymidazolam from midazolam in presence of NADPH by LC-MS/MS analysis; format: ADME
Cytochrome P450 1A2 [32] = biological target: T1, Cytochrome P450 1A2; assay: Inhibition of CYP1A2 in liver microsomes (unknown origin) assessed as formation of acetaminophen from phenacetin in presence of NADPH by LC-MS/MS analysis; format: ADME

T2 sequence (P08684 whole entry): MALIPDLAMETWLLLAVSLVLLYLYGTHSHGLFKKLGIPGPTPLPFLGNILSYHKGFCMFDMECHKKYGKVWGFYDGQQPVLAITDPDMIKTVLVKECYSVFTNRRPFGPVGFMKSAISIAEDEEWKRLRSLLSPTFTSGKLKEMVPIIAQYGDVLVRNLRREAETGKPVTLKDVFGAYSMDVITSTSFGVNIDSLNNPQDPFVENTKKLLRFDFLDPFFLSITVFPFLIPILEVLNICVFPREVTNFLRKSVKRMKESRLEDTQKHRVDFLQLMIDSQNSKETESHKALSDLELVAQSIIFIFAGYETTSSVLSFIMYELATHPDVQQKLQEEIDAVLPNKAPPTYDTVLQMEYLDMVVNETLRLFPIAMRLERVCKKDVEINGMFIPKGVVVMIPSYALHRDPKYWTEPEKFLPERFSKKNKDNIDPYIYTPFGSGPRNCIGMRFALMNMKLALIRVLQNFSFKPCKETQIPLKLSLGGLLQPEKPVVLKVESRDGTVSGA
Coagulation factor IX (Rattus norvegicus, UniProt P16296), sequence (P16296 40-185 limits assumed): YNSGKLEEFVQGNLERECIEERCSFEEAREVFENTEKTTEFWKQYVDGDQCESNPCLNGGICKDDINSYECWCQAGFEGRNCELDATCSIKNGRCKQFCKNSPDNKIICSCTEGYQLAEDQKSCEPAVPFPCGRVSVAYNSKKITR
Coagulation factor IX (Rattus norvegicus, UniProt P16296), sequence (P16296 228-462 limits assumed): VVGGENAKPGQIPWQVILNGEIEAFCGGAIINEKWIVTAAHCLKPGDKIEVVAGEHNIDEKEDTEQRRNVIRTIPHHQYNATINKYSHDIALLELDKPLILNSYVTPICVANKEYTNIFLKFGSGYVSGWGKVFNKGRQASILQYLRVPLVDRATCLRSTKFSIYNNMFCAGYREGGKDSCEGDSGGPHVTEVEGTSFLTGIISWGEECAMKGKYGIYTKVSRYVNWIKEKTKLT
Coagulation factor X, sequence (P00742 41-179 limits assumed): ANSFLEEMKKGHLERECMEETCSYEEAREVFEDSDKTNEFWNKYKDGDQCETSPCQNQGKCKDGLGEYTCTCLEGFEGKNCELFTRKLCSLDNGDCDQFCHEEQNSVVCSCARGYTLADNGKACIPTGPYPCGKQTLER
Coagulation factor X, sequence (P00742 235-488 limits assumed): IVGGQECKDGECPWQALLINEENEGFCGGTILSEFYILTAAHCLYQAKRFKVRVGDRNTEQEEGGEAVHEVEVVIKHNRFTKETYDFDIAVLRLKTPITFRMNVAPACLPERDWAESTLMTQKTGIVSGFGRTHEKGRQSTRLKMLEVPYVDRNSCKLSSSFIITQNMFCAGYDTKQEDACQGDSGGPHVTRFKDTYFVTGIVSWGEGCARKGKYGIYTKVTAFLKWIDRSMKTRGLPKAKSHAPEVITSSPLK
Cytochrome P450 2C19, sequence (P33261 whole entry): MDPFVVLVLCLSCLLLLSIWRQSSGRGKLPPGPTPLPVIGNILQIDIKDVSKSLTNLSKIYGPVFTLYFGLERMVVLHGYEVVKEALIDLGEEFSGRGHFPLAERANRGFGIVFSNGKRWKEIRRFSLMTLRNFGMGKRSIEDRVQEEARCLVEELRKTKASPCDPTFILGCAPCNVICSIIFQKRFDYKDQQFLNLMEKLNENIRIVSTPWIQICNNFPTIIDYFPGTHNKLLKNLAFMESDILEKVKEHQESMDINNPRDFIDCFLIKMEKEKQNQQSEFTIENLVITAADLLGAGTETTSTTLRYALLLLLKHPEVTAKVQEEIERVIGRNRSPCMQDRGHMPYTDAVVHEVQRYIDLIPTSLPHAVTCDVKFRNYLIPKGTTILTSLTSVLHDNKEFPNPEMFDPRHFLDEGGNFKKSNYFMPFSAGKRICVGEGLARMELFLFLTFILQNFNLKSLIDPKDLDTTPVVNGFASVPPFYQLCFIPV
Cytochrome P450 2C9, sequence (P11712 whole entry): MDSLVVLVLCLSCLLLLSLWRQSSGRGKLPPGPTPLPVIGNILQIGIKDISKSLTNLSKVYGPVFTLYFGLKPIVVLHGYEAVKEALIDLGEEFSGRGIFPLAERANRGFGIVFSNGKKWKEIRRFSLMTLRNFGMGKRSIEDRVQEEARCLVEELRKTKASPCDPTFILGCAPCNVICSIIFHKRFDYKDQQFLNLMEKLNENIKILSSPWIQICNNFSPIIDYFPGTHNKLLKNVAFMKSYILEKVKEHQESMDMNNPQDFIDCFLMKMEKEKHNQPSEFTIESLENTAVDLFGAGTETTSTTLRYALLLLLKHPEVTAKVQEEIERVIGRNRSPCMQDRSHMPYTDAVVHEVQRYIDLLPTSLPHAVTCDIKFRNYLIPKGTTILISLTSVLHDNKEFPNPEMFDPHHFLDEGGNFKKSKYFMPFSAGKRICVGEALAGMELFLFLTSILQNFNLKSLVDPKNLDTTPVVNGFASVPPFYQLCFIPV
Coagulation factor IX (Homo sapiens, UniProt P00740), sequence (P00740 47-191 limits assumed): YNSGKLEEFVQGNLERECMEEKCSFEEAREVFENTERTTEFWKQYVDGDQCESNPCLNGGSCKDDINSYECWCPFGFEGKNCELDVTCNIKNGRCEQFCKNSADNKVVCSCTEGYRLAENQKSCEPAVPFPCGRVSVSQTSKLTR
Coagulation factor IX (Homo sapiens, UniProt P00740), sequence (P00740 227-461 limits assumed): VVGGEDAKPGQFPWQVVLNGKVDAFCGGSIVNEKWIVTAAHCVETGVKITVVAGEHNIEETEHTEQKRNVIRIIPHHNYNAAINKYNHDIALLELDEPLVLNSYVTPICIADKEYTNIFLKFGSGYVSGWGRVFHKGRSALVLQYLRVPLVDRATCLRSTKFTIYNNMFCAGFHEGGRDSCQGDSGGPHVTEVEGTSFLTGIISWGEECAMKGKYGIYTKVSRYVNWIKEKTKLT
Cytochrome P450 2D6, sequence (P10635 whole entry): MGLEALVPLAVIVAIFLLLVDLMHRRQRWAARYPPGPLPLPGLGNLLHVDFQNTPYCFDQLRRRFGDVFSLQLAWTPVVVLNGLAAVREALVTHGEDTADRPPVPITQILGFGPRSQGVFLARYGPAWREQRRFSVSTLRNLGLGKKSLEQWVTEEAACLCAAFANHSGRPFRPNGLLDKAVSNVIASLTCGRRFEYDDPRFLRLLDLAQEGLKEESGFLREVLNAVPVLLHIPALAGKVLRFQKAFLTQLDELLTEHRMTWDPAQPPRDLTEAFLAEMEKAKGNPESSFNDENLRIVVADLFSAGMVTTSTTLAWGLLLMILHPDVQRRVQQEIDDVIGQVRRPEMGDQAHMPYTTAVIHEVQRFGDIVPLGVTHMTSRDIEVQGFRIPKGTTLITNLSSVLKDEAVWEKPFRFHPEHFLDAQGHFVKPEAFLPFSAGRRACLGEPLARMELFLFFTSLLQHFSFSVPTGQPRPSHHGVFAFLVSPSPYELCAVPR

Cc1ncn(-c2ccc(C(=O)N[C@H]3[C@H]4CC[C@H]3N(c3ncc(Cl)c5cnoc35)C4)c(Cl)c2)n1
remaining at 20 min, 1 µM [1]: 11% | Activity (Cytochrome P450 1A2 [2]): Not Active | Vd [3]: 0.9 L/kg | AUC(0-t) [4]: 1410 ng·h/mL | IC50 (Cytochrome P450 2D6): > 10 µM | Activity (Cytochrome P450 3A4 [5]): Not Active | 2aPTT (Plasma [6]): 6.2 µM | fraction unbound at 4 h, 10 µM [7]: 0.054 | remaining at 20 min, 1 µM [8]: 11% | AUC(0-t) [9]: 1010 ng·h/mL | Vd [10]: 1.3 L/kg | fraction unbound at 4 h, 10 µM [11]: 0.041 | remaining at 20 min, 1 µM [12]: 24% | bioavailability [13]: 51% | Tmax [14]: 1 h | fraction unbound at 4 h, 10 µM [15]: 0.051 | IC50 (Cytochrome P450 2C19): > 10 µM | half-life [16]: 282 min | half-life [17]: 48 min | 2PT (Plasma [18]): >200 µM | solubility at 1.5 h [19]: 29 µM (≈ 14 µg/mL) | IC50 (Coagulation factor X): 31 µM | clearance [20]: 3.5 mL/min/kg | Papp at 1 h, 5 µM [21]: 5.8 ×10⁻⁶ cm/s | Papp at 5 h, 5 µM [22]: 6.5 ×10⁻⁶ cm/s | 2aPTT (Plasma [23]): 5.8 µM | 2PT (Plasma [24]): >200 µM | Papp at 1 h, 5 µM [25]: 14.5 ×10⁻⁶ cm/s | clearance [26]: 16.5 mL/min/kg | Cmax [27]: 1600 ng/mL | IC50 (Coagulation factor IX [28]): 3.7 nM | IC50 (Coagulation factor IX [29]): 4.9 nM | IC50 (Cytochrome P450 2C9): > 10 µM | AUC(0-t) [30]: 5150 ng·h/mL | IC50 (Cytochrome P450 3A4 [31]): > 10 µM | IC50 (Cytochrome P450 1A2 [32]): > 10 µM
